Data published in US11597962B2, “Rapid selective detection of bacteria” (priority 2017, dated 2023).
Positions of bridges follow the written chain, without caps; N, C: chain ends. No end group written: not given here.

Assays:
[1] = system: L. monocytogenes strains (ATCC 43256, ATCC 19116, and Pat Type 1); experiment: Selectivity of the biosensor assay, Listeria strains; assay type: binding, Listeria monocytogenes; details: 10^4 cells/10 μL; control sample (water) 12000±2000
Experimental: (§1) The selectivity of the biosensor assay was tested with three L. monocytogenes strains (ATCC 43256, ATCC 19116, and Pat Type 1), B. cereus ATCC 14579, S. aureus ATCC 29213, S. enterica, and E. coli DHα. Water (no bacteria) was used as a control. Another control used was with a negative peptide (24-mer) spot, and L. monocytogenes 19116 was used. The biosensor assay was performed as described above.

[2] = system: L. monocytogenes Type I; experiment: Bioactivity agar plate assay (zone of inhibition); assay type: cell-based, Listeria monocytogenes; details: peptide 2.3, 0.23, 0.023 mM, 10 μL spots; 37° C., 24 hours
Experimental: Bioactivity. LeuA and negative peptide were checked for activity using agar plate inoculated with L. monocytogenes Type I. Briefly, a TSB agar plate was spotted with different concentrations of peptide (2.3, 0.23, and 0.023 mM, dissolved in water) with a spot volume of 10 μL. Then the 6 mL soft agar inoculated with 60 μL L. monocytogenes (overnight culture, undiluted) was plated over the TSB agar. The plate was incubated at 37° C. and zone of inhibition was checked after 24 hours.

[3] = system: L. monocytogenes 19116; experiment: Detection of Listeria monocytogenes in spiked milk sample (glass biosensor); assay type: binding; details: whole milk (3.5% fat) diluted with water, 10^3 cells/μL
Experimental: Detection of Listeria monocytogenes in spiked milk sample. A spiked milk sample was prepared using milk (3.5% fat, 1 mL) diluted with water (9 mL). L. monocytogenes 19116 was added to the diluted milk to obtain a bacterial concentration of 10^4 cfu/10 μL. Water was used as a control. The biosensor assay was performed on the spiked milk sample as described above.

[4] = system: E. coli DHα; experiment: Selectivity of the biosensor assay, E. coli; assay type: binding, Escherichia coli; details: 10^4 cells/10 μL; one value for both Gram-negative bacteria; control 12000±2000
Experimental: as §1

[5] = system: L. monocytogenes species; details: against L. monocytogenes species; cited from earlier work
[6] = system: Listeria innocua ATCC 33091; experiment: Detection of bacteria using AuNC on LeuA-conjugated PVDF membrane; assay type: binding; details: 5000 cfu in 500 μL water; baseline without bacteria 3880
From the text: Detection of bacteria using AuNC on membrane. A low-fluorescence polyvinylidene difluoride (PVDF) membrane (Thermo Scientific) was cut into 3 small circular pieces (˜0.75 cm radius). The circular membrane was placed on a membrane holder which was connected to a side arm Erlenmeyer flask with vacuum. Each membrane was first washed with copious amount of water by allowing water to filter through the membrane using a gentle vacuum. Membranes 1 and 2 were then conjugated with peptide LeuA by delivering 100 μL peptide solution (0.012 mM). The peptide was allowed to bind the membrane for ˜20 minutes and then excess, unbound peptide was removed by vacuum. Next, the peptide-conjugated membranes were exposed to samples with bacteria (5000 cfu Listeria innocua ATCC 33091 in 500 μL water; membrane 1) or without bacteria (500 μL water; membrane 2). […] Excess AuNC was removed by vacuum and the membrane was allowed to dry for ˜15-20 mins before fluorescence imaging. The fluorescence of each membrane was read using BioRad Imager (FIG. 12). […] The fluorescence for the peptide-conjugated membrane alone (no bacteria; membrane 2) could be due to the binding of AuNC to the peptide. This represents baseline fluorescence (3880) and any increase in fluorescence from baseline represents the presence of bacteria as shown in FIG. 12. […]

[7] = system: S. enterica Serovar Enteritidis; experiment: Selectivity of the biosensor assay, S. enterica; assay type: binding, Salmonella enterica; details: 10^4 cells/10 μL; one value for both Gram-negative bacteria; control 12000±2000
Experimental: as §1

[8] = system: B. cereus ATCC 14579; experiment: Selectivity of the biosensor assay, B. cereus; assay type: binding, Bacillus cereus; details: 10^4 cells/10 μL; control 12000±2000
Experimental: as §1

[9] = system: S. aureus ATCC 13565; details: observed previously; cited from earlier work
[10] = system: S. aureus ATCC 29213; experiment: Selectivity of the biosensor assay, S. aureus; assay type: binding, Staphylococcus aureus; details: 10^4 cells/10 μL; control 12000±2000
Experimental: as §1

[11] = system: L. monocytogenes ATCC 19116; experiment: LeuA-conjugated PVDF membrane assay: sample volumes and limit of detection; assay type: binding, Listeria monocytogenes
Experimental: Detection of L. monocytogenes from different sample volumes. Six circular membranes conjugated with peptide LeuA were prepared as described above. Peptide-conjugated membranes were exposed to three samples of different volumes (500 μL, 1 mL, and 5 mL) each containing same number of L. monocytogenes ATCC 19116 (2000 cfu). Membranes were also exposed to samples (water) with no bacteria (500 μL, 1 mL, and 5 mL) to serve as controls. After passing the samples through the membranes, all membranes were reacted with AuNC (500 μL, 100 μL stock diluted to 500 μL with water) to label the bound bacteria. Excess AuNC from each membrane was removed by vacuum and the membrane was allowed to dry for ˜15-20 mins before fluorescence imaging. The fluorescence of each membrane was read using a BioRad Imager. […] The increase in fluorescence was calculated using the following equation. [formula] Estimation of the limit of detection for L. monocytogenes. Four circular membranes conjugated with peptide LeuA were prepared as described above. The membranes were exposed to samples (500 μL) containing different numbers of L. monocytogenes ATCC 19116 (0, 200, 2000, or 20000 CFU). The rest of the assay was performed as described above.

[12] = system: L. monocytogenes ATCC 43256; experiment: Detecting L. monocytogenes using AuNC on LeuA-spotted glass surface; assay type: binding, Listeria monocytogenes; details: Leu A 10 μL 0.13 mM, 10^4 cells, AuNC 12 μL; AuNC alone 31860±11608, peptide + AuNC without bacteria 34352±1812
Experimental: Detecting L. monocytogenes using AuNC on glass surface. An aqueous solution of Leu A (10 μL, 0.13 mM) was spotted on a glass slide (˜4 mm diameter) in triplicate. The peptide spots were allowed to air dry (˜20 min). This was followed by spotting bacteria L. monocytogenes ATCC 43256 (10 μL, 10^4 cells) or no bacteria (10 μL water) on top of the peptide spot. The glass slide was then dipped in MilIQ water for 10 seconds to remove all non-bound bacteria. The slide was allowed to air dry and finally AuNC (12 μL) was deposited on each spot. AuNC (12 μL) alone was also spotted as a control. The mean fluorescence intensity was recorded using Chemidoc imager. The experiment was repeated three times.

[13] = system: L. monocytogenes ATCC 19116; experiment: Glass biosensor assay: peptide concentration optimization and limit of detection; assay type: binding, Listeria monocytogenes
Experimental: Optimization of peptide concentration. The bio-sensor was optimized by testing different LeuA concentrations. The slide was spotted with 10 μL of varying peptide concentrations (0, 0.013, 0.025, 0.064, or 0.13 mM). The peptide spot was allowed to air dry for 20 min. Next, bacteria (L. monocytogenes ATCC 19116) was spotted at a constant concentration (10 μL, 10^4 cfu). After drying, the slides were dipped in MilIQ water for 10 seconds. Lastly AuNC (12 μl) was spotted to quantify the fluorescence intensity of the spots.
Sensitivity and selectivity of the biosensor. To obtain the limit of detection (LOD), the biosensor assay was performed with varying number of bacteria in 10 μL sample. An overnight culture of L. monocytogenes ATCC 19116 was diluted to obtain samples with 0, 200, 1000, 2000, and 10000 cfu/10 μL. A glass slide was prepared with peptide spots (Leu A, 0.13 mM, 10 μL) as descried above and bacteria (10 μL) were spotted on the peptide spot followed by AuNC labeling and fluorescence recording using Chemidoc imager.

Row | Substance | fluorescence of AuNC-labeled bound bacteria [1] | activity in bioactivity plate assay (zone of inhibition) [2] | fluorescence of spiked milk sample compared to the milk alone [3] | fluorescence of AuNC-labeled bound bacteria [4] | minimum inhibitory concentration (MIC) [5] | fluorescence of membrane [6] | fluorescence of AuNC-labeled bound bacteria [7] | fluorescence of AuNC-labeled bound bacteria [8] | binding of bacteria to peptide [9] | fluorescence of AuNC-labeled bound bacteria [10] | percent increase in fluorescence ([11]; 200 cfu in 500 μL) | percent increase in fluorescence ([11]; 2000 cfu in 500 μL) | percent (%) increase in fluorescence ([11]; 2000 cfu in 500 μL, 1 mL and 5 mL) | percent increase in fluorescence ([11]; 20000 cfu in 500 μL) | MFI of AuNC-labeled bacteria bound to peptide [12] | fluorescence of bound bacteria ([13]; 2000 cfu bacteria per spot) | fluorescence of bound bacteria ([13]; 10000 cfu bacteria per spot) | fluorescence of bound bacteria (highest) ([13]; peptide concentration 0.13 mM, 10 μL, bacteria 10^4 cfu/10 μL)
1 | negative control (20-mer) peptide: short sequence (20-mer; SEQ ID NO:2) derived from LeuA known not to bind L. monocytogenes (NGVHATKSGASVNWGEAFSA; Control Leucocin A fragment) [reference compound] | 12164±2937 | inactive | – | – | – | – | – | – | – | – | – | – | – | – | – | – | – | –
2 | Leucocin A (KYYGNGVHCTKSGCSVNWGEAFSAGVHRLANGGNGFW-OH; disulfide 9-14 (inferred)) [LeuA] | 28000-33000 | active | significantly higher fluorescence | 12000±800 | low nanomolar range | 7776 | 12000±800 | 13000±1600 | Low binding | 18000±2100 | 11.7% | 15.9% | 15-20% | 26.1% | 62390±5975 | 31473±2932 | 30842±4696 | 21275±2177
